Experimental data from patent US4450269A, “Mono-5-substituted-3-chloro-4H-1,2,6-thiadiazin-4-one antifungal agents” (FMC Corporation, priority 1980, dated 1984).

Key:
Rhizoctonia solani = experiment: Mycelial growth test; type: cell-based; details: Rhizoctonia solani, 72 h, RS, read-out: Percent Fungus Growth Inhibition
Source text: | RS = Rhizoctonia solani

Uromyces phaseoli = experiment: whole plant or invertebrate; details: foliar, read-out: Percent Disease Control, foliar, bean rust

SMILES | inhibition at 5 ppm (Rhizoctonia solani) [%] | inhibition at 10 ppm (Rhizoctonia solani) [%] | inhibition at 20 ppm (Rhizoctonia solani) [%] | inhibition at 40 ppm (Rhizoctonia solani) [%] | pest or weed control at 150 ppm (Uromyces phaseoli) [%]
Cc1cc(Oc2nsnc(Cl)c2=O)ccc1Cl [Compound 54, 3-chloro-5-(4-chloro-3-methylphenoxy)-4H--1,2,6-thiadiazin-4-one] | 38 | 42 | 42 | 71 | 100
Cc1cc(Cl)ccc1Oc1nsnc(Cl)c1=O [Compound 55, 3-chloro-5-(4-chloro-2-methylphenoxy)-4H--1,2,6-thiadiazin-4-one] | 33 | 56 | 31 | 53 | 100
Cc1ccc(Cl)c(Oc2nsnc(Cl)c2=O)c1 [Compound 56, 3-chloro-5-[(2-chloro-5-methyl)phenoxy]-4H--1,2,6-thiadiazin-4-one] | 33 | 78 | 100 | 100 | 0
Cc1ccc(Oc2nsnc(Cl)c2=O)c(Br)c1 [Compound 57, 3-[(2-bromo-4-methyl)-phenoxy]-5-chloro-4H--1,2,6-thiadiazin-4-one] | 53 | 69 | 80 | 78 | 100
Cc1cc(Cl)c(Oc2nsnc(Cl)c2=O)cc1C [Compound 58, 3-chloro-5-[(2-chloro-4,5-dimethyl)phenoxy]-4H--1,2,6-thiadiazin-4-one] | 56 | 58 | 53 | 64 | 100
Cc1cc(Oc2nsnc(Cl)c2=O)cc(C)c1Cl [Compound 59, 3-chloro-5-[(4-chloro-3,5-dimethyl)phenoxy]-4H--1,2,6-thiadiazin-4-one] | 33 | 24 | 33 | 69 | 0
Cc1cc(Oc2nsnc(Cl)c2=O)cc(C)c1Br [Compound 60, 3-[(4-bromo-3,5-dimethyl)-phenoxy]-5-chloro-4H--1,2,6-thiadiazin-4-one] | 42 | 31 | 42 | 56 | 100
